Experiments:
[1] = system: human peripheral blood mononuclear cells; assay type: cell-based; conditions: human PBMCs and whole human blood, Fig. 6
[2] = system: human TLR2, TLR3, TLR4, TLR5, TLR7, TLR9, TLR10, Nod1 and Nod2; experiment: counter-screen in reporter cell lines specific for other human TLRs and Nods; assay type: cell-based

Row | Structure (SMILES) | cytokine/chemokine induction profile [1] | specificity in counter-screens [2]
1 | CCCCCc1cc2ccccc2nc1N [Compound 14b, 3-pentylquinolin-2-amine] | induction of a specific set of chemokines and proinflammatory cytokines, including interleukins 12 and 18 | –
2 | CCCCOc1cc2ccccc2nc1N [Compound 6, 3-butoxyquinolin-2-amine] | – | specific for human TLR8
3 | CCCCNc1cc2ccccc2nc1N [Compound 9, N^3-butylquinoline-2,3-diamine] | – | specific for human TLR8
4 | CCCCSc1cc2ccccc2nc1N [Compound 12, 3-(butylthio)quinolin-2-amine] | – | specific for human TLR8

From publication PMC4105021 (ChemMedChem, 2014)
